Experimental data as given in patent US20100069498A1 (ESSENTYS AB, priority 2003, published 2010).
Several values for one entry are separate records, joined by “and”; a condition that tells them apart may be missing. Equal values may be shown once.

Legend:
[1] = Description: Female piglets (n=9) were purchased from the Texas Department of Criminal Justice, Huntsville, Tex.
Pigs (14 d of age) arrived at the Children's Nutrition Research Center and for a 7-day adjustment period were fed a liquid milk replacer diet (Litter Life, Merrick, Middleton, Wis.) at a rate of 50 g/(kg·d).
Briefly, under isoflurane anesthesia and aseptic conditions, the piglets were implanted with a polyethylene catheter (o.d., 1.27 mm, Becton Dickinson, Sparks, Md.) in the common portal vein, and silastic catheters (o.d., 1.78 mm) in an external jugular vein and a carotid artery.
An ultrasonic flow probe (8 to 10 mm i.d., Transonic, Ithaca, N.Y.) was placed around the portal vein.
A silicone catheter (o.d., 2.17 mm, Baxter Healthcare, McGaw Park, Ill.) was implanted into the lumen of the duodenum. The catheters were filled with sterile saline containing heparin (2.5×10^4 U/L), and exteriorized on either the left flank (portal and duodenal catheters, flow probe leads) or between the scapulae (jugular and carotid catheters).
For plasma amino acid analysis, a 0.2 mL aliquot of plasma was mixed with an equal volume of an aqueous solution of methionine sulfone (4 mmol/L) and centrifuged at 10,000×g for 120 min through a 10-kDa cutoff filter.
A 50 μL aliquot of the filtrate was dried and the amino acids were analyzed by reverse-phase HPLC of their phenylisothiocyanate derivatives (Pico Tag, Waters, Woburn, Mass.).
Plasma ammonia was determined using a spectrophotometric assay kit (171-C, Sigma-Aldrich, St. Louis, Mo.).
Plasma glucose was determined using a spectrophotometric assay kit (315-100; Sigma-Aldrich, St. Louis, Mo.).
Net portal balance of metabolites [μmol/(kg·h)] was calculated as follows:
(Conc.PORT−Conc.ART)×PBF (1)
when Conc. is the concentration in the blood (μmol/L), PORT and ART refer to portal and arterial blood and PBF is portal blood flow [L/(kg·h)].
Piglets were deprived of food for 15 h before initiation of the experiment.
On the day of the experiment, at time −1 h, a primed (7.75 mL/kg; 25% wt/wt aqueous solution; oral), continuous duodenal infusion of milk replacer [Litter Life, Merrick, Middleton, Wis.; 7.75 mL/(kg·h)] prepared as a 25% (wt/wt) aqueous solution which provided ˜920 kJ and 12.5 g protein/(kg·d).

[2] = Mean luminal disappearance of a duodenal AKG bolus; type: in vivo, pigs; details: duodenal bolus 1040 μmol/kg
Experimental: After 1 h, pigs were sacrificed.
The small intestine was carefully clamped at the proximal duodenum and distal ileum, removed and flushed with 2×50 mL of saline to wash the intestine.

Remark: listed apart in the source
[3] = AKG infusion 930 μmol/(kg·h), P<0.01
[4] = AKG treatment, P<0.05, data not shown
[5] = piglets, duodenal infusion 930 μmol/(kg·h) AKG (3.75% of diet dry matter), ± SEM
[6] = pigs, duodenal infusion 930 μmol/(kg·h) AKG, n = 5
[7] = pigs, duodenal infusion 930 μmol/(kg·h) AKG, n = 5, LSMean ± SEM

## O=C(O)CCC(=O)C(=O)O [AKG, alpha-ketoglutaric acid]
[1]; AKG infusion
  Effect on net portal appearance of glutamate: not affected
  Effect on net portal appearance of glutamine: not affected
[1]; AKG infusion 930 μmol/(kg·h)
  Effect on net portal balance of AKG vs control: increased
[1]; [3]
  Effect on arterial AKG concentration vs control: increased
  Effect on portal AKG concentration vs control: increased
[1]; AKG treated pigs vs control
  Increase in proline net portal balance: 138.1 µmol/kg/h
[1]; AKG treatment, duodenal infusion
  Effect on ammonia net portal balance vs control: not affected
[1]; AKG treatment, duodenal infusion, P<0.05
  Effect on net portal balance of glucose vs control: decreased
[1]; AKG treatment, P<0.05
  Effect on portal mass balance of leucine vs control: increased
  Effect on portal mass balance of lysine vs control: increased
  Effect on portal mass balance of proline vs control: increased
[1]; [4]
  Effect on arterial concentration of proline vs control: increased
  Effect on portal concentration of proline vs control: increased
[1]; AKG treatment, P<0.10
  Effect on portal mass balance of isoleucine vs control: tended (P<0.10) to increase
[1]; AKG treatment, data not shown
  Effect on portal leucine concentration vs control: tended (P<0.01) to be increased
[1]; duodenal infusion 930 μmol/(kg·h) AKG
  AKG unaccounted for in the portal balance: over 800 μmol/(kg·h)
[1]; piglets, duodenal infusion 930 μmol/(kg·h) AKG
  AKG net portal balance, % of infused: 10.23 % of infused and 10 % of infused and 10.23 ± 0.57 % of infused
[1]; [5]
  AKG net portal balance: 95 µmol/kg/h and 95.2 ± 12 µmol/kg/h
  Ammonia net portal balance: 561.1 ± 53 µmol/kg/h
  Arterial AKG: 27.4 ± 3.6 µmol/L
  Glucose net portal balance: 203.9 ± 69 mg/(kg · h)
  Portal AKG: 64.6 ± 5.9 µmol/L
[1]; [6]
  Net portal balance of Alanine, % of Intake: 189.0 % of Intake
  Net portal balance of Arginine, % of Intake: 98.3 % of Intake
  Net portal balance of Aspartate, % of Intake: 9.6 % of Intake
  Net portal balance of Glutamate, % of Intake: 18.6 % of Intake
  Net portal balance of Glycine, % of Intake: 116.0 % of Intake
  Net portal balance of Histidine, % of Intake: 71.4 % of Intake
  Net portal balance of Isoleucine, % of Intake: 140.0 % of Intake
  Net portal balance of Leucine, % of Intake: 113.4 % of Intake
  Net portal balance of Lysine, % of Intake: 98.8 % of Intake
  Net portal balance of Phenylalanine, % of Intake: 98.7 % of Intake
  Net portal balance of Proline, % of Intake: 114.5 % of Intake
  Net portal balance of Serine, % of Intake: 108.3 % of Intake
  Net portal balance of Threonine, % of Intake: 75.7 % of Intake
  Net portal balance of Tyrosine, % of Intake: 135.9 % of Intake
  Net portal balance of Valine, % of Intake: 108.9 % of Intake
[1]; [7]
  Net portal balance of Alanine: 557.8 ± 48 µmol/kg/h
  Net portal balance of Arginine: 109.0 ± 19 µmol/kg/h
  Net portal balance of Asparagine: 185.6 ± 18 µmol/kg/h
  Net portal balance of Aspartate: 29.7 ± 6.0 µmol/kg/h
  Net portal balance of Glutamate: 80.1 ± 17 µmol/kg/h
  Net portal balance of Glutamine: 25.5 ± 45 µmol/kg/h
  Net portal balance of Glycine: 177.2 ± 20 µmol/kg/h
  Net portal balance of Histidine: 45.9 ± 3.8 µmol/kg/h
  Net portal balance of Phenylalanine: 95.2 ± 11 µmol/kg/h
  Net portal balance of Serine: 244.7 ± 64 µmol/kg/h
  Net portal balance of Threonine: 210.9 ± 18 µmol/kg/h
  Net portal balance of Tryptophan: 47.2 ± 4.3 µmol/kg/h
  Net portal balance of Tyrosine: 115.8 ± 17 µmol/kg/h
  Net portal balance of Valine: 279.3 ± 32 µmol/kg/h
[2]; 1 h
  Share of the AKG bolus disappeared from the lumen of the duodenum: approximately 64%
[2]; pigs, one hour
  Luminal disappearance as share of the 1040 μmol/kg of infused AKG: 63.8
AKG infusion
  Effect on production of CO2 in the whole body: did not increase
AKG treatment, FIG. 1
  Effect on NOLD (non-oxidative leucine disposal) vs control: not affected
  Effect on Ra (leucine appearance rate) vs control: not affected
  Effect on whole-body leucine oxidation vs control: not affected
